Test results as given in the supplement of paper PMC10307832.

Experiments:
Assay in all cases: relative viability (nuclei count vs DMSO), 5 days (fraction); higher = more cells survive
[1] = compound: CN[C@@H]1C[C@H]2O[C@@](C)([C@@H]1OC)n1c3ccccc3c3c4c(c5c6ccccc6n2c5c31)C(=O)NC4 [Staurosporine] + Cc1nc(Nc2ncc(C(=O)Nc3c(C)cccc3Cl)s2)cc(N2CCN(CCO)CC2)n1 [Dasatinib] (partner 0.075 µM)
Summary of the method: (§1)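 Values are medians from duplicate plates. Each reflects relative viability, defined as the nuclei count of treated wells over that of vehicle wells. Lung cancer cell lines in 1536-well plates were pin-tool dosed one day after seeding with one drug alone or with a fixed anchor-drug dose plus five library-drug doses (not always all listed) in √10 steps, then fixed, stained and imaged at 4× after 5 days.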

[2] = compound: CN[C@@H]1C[C@H]2O[C@@](C)([C@@H]1OC)n1c3ccccc3c3c4c(c5c6ccccc6n2c5c31)C(=O)NC4 [Staurosporine] + CS(=O)(=O)N1CCN(Cc2cc3nc(-c4cccc5[nH]ncc45)nc(N4CCOCC4)c3s2)CC1 [Pictilisib] (partner 1 µM)
Summary of the method: as §1

Staurosporine + AZD7762 = compound: CN[C@@H]1C[C@H]2O[C@@](C)([C@@H]1OC)n1c3ccccc3c3c4c(c5c6ccccc6n2c5c31)C(=O)NC4 [Staurosporine] + NC(=O)Nc1cc(-c2cccc(F)c2)sc1C(=O)N[C@H]1CCCNC1 [AZD7762] (partner 0.2 µM)
Summary of the method: as §1

Sulindac + Dasatinib = compound: CC1=C(CC(=O)O)c2cc(F)ccc2/C1=C\c1ccc([S+](C)[O-])cc1 [Sulindac] + Cc1nc(Nc2ncc(C(=O)Nc3c(C)cccc3Cl)s2)cc(N2CCN(CCO)CC2)n1 [Dasatinib] (partner 0.075 µM)
Summary of the method: as §1

Cell Line | relative viability ([1]; first compound 0.005 µM) | relative viability ([1]; first compound 0.05 µM) | relative viability ([1]; first compound 0.1581 µM) | relative viability ([1]; first compound 0.5 µM) | relative viability ([2]; first compound 0.005 µM) | relative viability ([2]; first compound 0.01581 µM) | relative viability ([2]; first compound 0.05 µM) | relative viability ([2]; first compound 0.1581 µM) | relative viability ([2]; first compound 0.5 µM) | relative viability (Staurosporine + AZD7762; first compound 0.005 µM) | relative viability (Staurosporine + AZD7762; first compound 0.05 µM) | relative viability (Staurosporine + AZD7762; first compound 0.1581 µM) | relative viability (Staurosporine + AZD7762; first compound 0.5 µM) | relative viability (Sulindac + Dasatinib; first compound 0.08 µM) | relative viability (Sulindac + Dasatinib; first compound 0.253 µM) | relative viability (Sulindac + Dasatinib; first compound 0.8 µM) | relative viability (Sulindac + Dasatinib; first compound 2.53 µM) | relative viability (Sulindac + Dasatinib; first compound 8 µM) | relative viability ([1]; first compound 0.01581 µM) | relative viability (Staurosporine + AZD7762; first compound 0.01581 µM)
201T | 0.55 | 0.544 | 0.402 | 0.279 | 0.595 | 0.451 | 0.551 | 0.463 | 0.42 | 0.599 | 0.498 | 0.579 | 0.342 | 0.662 | 0.585 | 0.526 | 0.559 | 0.587 |  | 
A-427 | 0.5 | 0.183 | 0.0891 | 0.128 | 0.524 | 0.335 | 0.329 | 0.103 | 0.106 | 0.545 | 0.246 | 0.169 | 0.142 | 0.92 | 0.76 | 0.547 | 0.714 | 0.755 | 0.206 | 0.305
ABC-1 | 0.341 | 0.167 | 0.109 | 0.139 | 0.256 | 0.164 | 0.112 | 0.0906 | 0.0638 | 0.3 | 0.393 | 0.642 | 0.0806 | 0.506 | 0.53 | 0.434 |  | 0.673 | 0.193 | 0.496
BEN | 0.288 | 0.356 | 0.236 | 0.167 | 0.836 | 0.612 | 0.474 | 0.251 | 0.204 | 0.946 | 0.761 | 0.316 | 0.294 | 0.311 | 0.317 | 0.314 | 0.288 | 0.384 | 0.288 | 0.776
CAL-12T | 0.14 | 0.0772 | 0.107 | 0.0737 | 0.303 | 0.0968 | 0.135 | 0.19 | 0.218 | 0.416 | 0.409 | 0.257 | 0.167 | 0.317 | 0.391 | 0.324 | 0.371 | 0.341 | 0.0881 | 0.338
ChaGo-K-1 | 0.621 | 0.475 | 0.147 | 0.128 | 0.692 |  | 0.52 | 0.244 |  | 0.912 | 0.615 | 0.148 | 0.135 | 0.597 | 0.618 | 0.64 | 0.587 | 0.651 | 0.491 | 
EKVX | 0.666 | 0.201 | 0.202 | 0.161 | 0.403 | 0.218 | 0.184 | 0.163 | 0.121 | 0.239 | 0.286 | 0.321 |  | 0.414 | 0.524 |  | 0.479 | 0.476 | 0.282 | 0.119
EMC-BAC-2 | 0.213 | 0.198 | 0.167 | 0.152 | 0.29 | 0.129 | 0.141 | 0.195 | 0.176 | 0.352 | 0.203 | 0.262 | 0.192 | 0.269 | 0.323 | 0.378 | 0.314 | 0.367 | 0.197 | 0.215
EPLC-272H | 0.179 | 0.0709 | 0.0723 | 0.103 | 0.333 | 0.141 | 0.176 | 0.1 | 0.0694 | 0.235 | 0.111 | 0.0612 | 0.0657 | 0.424 | 0.377 |  | 0.358 | 0.332 | 0.0602 | 0.145
H3255 | 0.271 | 0.255 | 0.19 | 0.248 | 0.325 | 0.238 | 0.145 | 0.135 | 0.0752 | 0.658 | 0.324 | 0.204 | 0.126 | 0.407 | 0.319 | 0.487 | 0.389 | 0.399 | 0.247 | 0.474
HARA | 0.289 | 0.127 | 0.145 | 0.0757 | 0.193 | 0.23 | 0.0859 | 0.0523 | 0.062 | 0.278 | 0.262 |  | 0.029 | 0.248 | 0.25 | 0.277 | 0.327 | 0.26 |  | 0.169
HCC-15 | 0.494 | 0.229 | 0.11 | 0.0769 | 0.718 |  | 0.566 | 0.216 | 0.113 | 1.28 | 1.22 | 0.736 | 0.302 | 0.674 | 0.614 | 0.544 | 0.573 | 0.656 |  | 
HCC-78 | 0.357 | 0.339 | 0.26 | 0.264 | 0.212 | 0.175 | 0.178 | 0.223 | 0.206 | 0.674 | 0.438 | 0.375 | 0.326 | 0.552 | 0.313 | 0.345 | 0.587 | 0.401 | 0.295 | 0.463
HCC-366 | 0.981 | 0.22 | 0.0316 | 0.022 | 0.106 | 0.0757 | 0.0691 | 0.0727 | 0.0401 | 0.255 | 0.165 | 0.0217 | 0.0248 | 0.715 | 0.699 | 0.578 | 0.587 | 0.622 |  | 
HCC-827 | 0.391 | 0.372 | 0.319 | 0.305 | 1.24 | 0.812 | 0.559 | 0.552 | 0.43 | 0.204 | 0.153 | 0.143 | 0.115 | 0.348 | 0.412 | 0.251 | 0.319 | 0.338 | 0.423 | 0.179
HOP-62 | 0.343 | 0.109 | 0.124 | 0.0982 | 0.182 | 0.0895 | 0.0986 | 0.0751 | 0.0641 | 0.358 |  | 0.126 | 0.0794 | 0.696 | 0.652 |  | 0.718 | 0.646 | 0.164 | 0.128
LC-2-ad | 0.488 | 0.193 | 0.194 | 0.141 | 0.591 | 0.159 | 0.143 | 0.0807 | 0.0527 |  | 0.172 | 0.12 | 0.0995 | 0.584 | 0.718 | 0.337 | 0.418 | 0.839 | 0.188 | 0.276
